Results as given in patent publication US12479866B2, “Boron-containing rho kinase inhibitors” (Percipiad, Inc., priority 2019, dated 2025).
“And” between values parts separate entries of the source, which are not always exact repeats. Identical values can stand only once. Like-named read-outs stand apart in the source and are kept apart here.

Experiments:
primary hTM cells [1] = test: CellTox Green cytotoxicity assay in hTM cells; format: cell-based; settings: 24 h, 48 h, 72 h
Text: Commercially available RealTime-Glo™ MT cell viability (Promega, catalog #G9712) and CellTox™ Green cytotoxicity (Promega, catalog #G8731) assays were used in assessing effect of compounds on primary hTM cell viability and cytotoxicity. The RealTime-Glo™ MT cell viability assay is a nonlytic, homogeneous, bioluminescent method that determines the number of viable cells in culture by measuring the reducing potential of cells and thus metabolism (MT). Viable cells reduce the proprietary pro-substrate to generate a substrate for NanoLuc® luciferase. This substrate diffuses from cells into the surrounding culture medium, where it is rapidly used by the NanoLuc® Enzyme to produce a luminescent signal. In a contrasting and complementary manner, CellTox™ Green cytotoxicity assay measures changes in membrane integrity that occur as a result of cell death. This assay system uses a proprietary asymmetric cyanine dye that is excluded from viable cells but preferentially stains the dead cells' DNA. […]
Human™ cells were cultured and maintained as described in Example 12. […] Light emitted by luciferase and fluorescence emitted by dye binding to DNA (excitation 485 nm and emission 525 nm) were measured at 24 h, 48 h, and 72 h after incubation using plate based luminescence and fluorescence plate readers.

HEK293 cells = test: CellTiter-Glo Luminescent Cell Viability Assay; settings: HEK293 cells, two days
Description: We used CellTiter-Glo® Luminescent Cell Viability Assay (Promega, cat #G7573) to determine the number of viable cells in culture based on quantitation of the ATP present, which signals the presence of metabolically active cells. • 1. Prepared HEK293 suspension culture cells (ThermoFisher, cat #A14635) and added 50 μl cells in media (12,500 cells) to each well of a white, opaque-walled 96-well plate in triplicate. • 2. […] Incubated at 37° C. and 5% CO2 for two days. • 4. Added 100 μl of CellTiter-Glo® Reagent to each well and mix contents for 2 minutes on an orbital shaker to induce cell lysis. • 5. Recorded luminescence using a plate luminometer.

Phospho-MYPT1 Thr853 = test: Inhibition of MYPT1 phosphorylation in human trabecular meshwork (hTM) cells, western blot
Description: The outflow of aqueous humor across the trabecular meshwork (TM) is regulated by, among other factors, actomyosin contraction of the TM cells and altered extracellular matrix. ROCK is known to inhibit the phosphatase activity of myosin light chain phosphatase (MLCP) by phosphorylating MYPT1 at amino acids Thr696 and Thr853. […] Media with inhibitors was suctioned off, wells washed 2 times with cold PBS pH 7.4 buffer, and attached cells were scrapped off with 500 μl (T75 flasks) or 100 μl (6-well plates) SDS-PAGE sample buffer, and collected into 1.5 ml microcentrifuge tubes. • 5.
Two days before compound addition 6-well plates were seeded at a density of 75,000 cells/well. On the day of compound addition media was replaced with 3 ml fresh media containing compounds at different concentration. Fifteen hours after compound addition cells in each well were lysed with 0.2 ml extraction buffer (SDS-PAGE sample buffer containing […] and protease inhibitors) and extracts were collected.
Compounds (10 μM) were added to hTM cells cultured in 60 mm plates and cell extracts collected after […]. Cells were lysed with 0.2 ml lysis buffer and 20 μl extract was loaded in each lane (FIG. 7).

primary hTM cells [2] = test: RealTime-Glo MT cell viability assay in hTM cells; format: cell-based; settings: for Cell viability compared to DMSO controls: 30 uM and 10 μm; for Cell viability: 3.33 μm
Text: Commercially available RealTime-Glo™ MT cell viability (Promega, catalog #G9712) and CellTox™ Green cytotoxicity (Promega, catalog #G8731) assays were used in assessing effect of compounds on primary hTM cell viability and cytotoxicity. The RealTime-Glo™ MT cell viability assay is a nonlytic, homogeneous, bioluminescent method that determines the number of viable cells in culture by measuring the reducing potential of cells and thus metabolism (MT). Viable cells reduce the proprietary pro-substrate to generate a substrate for NanoLuc® luciferase. This substrate diffuses from cells into the surrounding culture medium, where it is rapidly used by the NanoLuc® Enzyme to produce a luminescent signal. In a contrasting and complementary manner, CellTox™ Green cytotoxicity assay measures changes in membrane integrity that occur as a result of cell death. This assay system uses a proprietary asymmetric cyanine dye that is excluded from viable cells but preferentially stains the dead cells' DNA. The fluorescent signal produced by the dye binding to the dead-cell DNA is proportional to cytotoxicity.
Human™ cells were cultured and maintained as described in Example 12. Fifty μl cells (600 cells) in culture media containing compound, 25 μl media with RealTime-Glo™ MT cell viability assay reagent and 25 μl media with CellTox™ Green cytotoxicity assay reagent were plated in black, clear bottom 96-well plates. Light emitted by luciferase and fluorescence emitted by dye binding to DNA (excitation 485 nm and emission 525 nm) were measured at 24 h, 48 h, and 72 h after incubation using plate based luminescence and fluorescence plate readers.

[3] = tested on: New Zealand White rabbits; settings: 0.1 ml of 5 mg/ml
Text: The right eye that was not treated served as the control. […] The eyes of initial and confirmatory test animals were examined with slit lamp for ocular lesions. […] The animals were also observed for clinical signs of toxicity, morbidity and mortality.

hTM cells = test: hTM cell morphology changes (microscopy); settings: for hTM cell morphology: 20 hours
Solubility in saline = format: physicochemical
Caco-2 Permeability = format: in vitro ADME; settings: human
Description: (§1) Caco-2 Permeability. Experiment was conducted by Absorption Systems. Caco-2 cells (clone C2BBe1) were obtained from American Type Culture Collection (Manassas, VA). Cell monolayers were grown to confluence on collagen-coated, microporous membranes in 12-well assay plates. The permeability assay buffer was Hanks' balanced salt solution containing 10 mM HEPES and 15 mM glucose at a pH of 7.4. The buffer in the receiver chamber also contained 1% bovine serum albumin. The dosing solution concentration was 5 μM of test article in the assay buffer. Cell monolayers were dosed on the apical side (A-to-B) or basolateral side (B-to-A) and incubated at 37° C. with 5% CO2 in a humidified incubator. Samples were taken from the donor and receiver chambers at 120 minutes. Each determination was performed in duplicate. The flux of lucifer yellow was also measured post-experimentally for each monolayer to ensure no damage was inflicted to the cell monolayers during the flux period. […] Permeability calculations were performed as per Absorption Systems protocol, Table 23.

Caco-2 cells = test: Caco-2 Permeability; format: in vitro ADME; settings: Caco-2
Description: as §1

[4] = tested on: MDR1-MDCK cell monolayers; test: MDR1-MDCK Permeability; format: in vitro ADME; settings: MDR1-MDCK
Description: as §1, with “MDR1-MDCK” for “Caco-2”, “MDR1-MDCK cell” for “Caco-2 cells (clone C2BBe1) were obtained from American Type Culture Collection (Manassas, VA). Cell”, “post experimentally” for “post-experimentally”, “24.” for “23.”

MDR1 = test: MDR1-MDCK Permeability; format: in vitro ADME; settings: dog
Description: as §1, with “MDR1-MDCK” for “Caco-2”, “MDR1-MDCK cell” for “Caco-2 cells (clone C2BBe1) were obtained from American Type Culture Collection (Manassas, VA). Cell”, “post experimentally” for “post-experimentally”, “24.” for “23.”

ROCK1 = ROCK1 (Homo sapiens (Human), UniProt Q13464); test: ROCK1 ADP-Glo kinase enzyme inhibition assay; format: biochemical
Description: (§2) We measured ROCK and PKA kinase enzyme activity inhibition by compounds using commercially available ROCK1 (Promega Corporation, cat #V9581), ROCK2 (Promega, cat #V4045), and PKA kinase (Promega, cat #V4247) ADP-Glo™ assay kits. ADP-Glo™ Kinase Assay is a luminescent ADP detection assay that provides a homogeneous method to measure kinase activity by quantifying the amount of ADP produced during a kinase reaction. The assay is performed in two steps. First, after the kinase reaction, an equal volume of ADP-Glo™ Reagent is added to terminate the kinase reaction and deplete the remaining ATP. Second, the Kinase Detection Reagent is added to simultaneously convert ADP to ATP and allow the newly synthesized ATP to be measured using a luciferase/luciferin reaction. The light generated is measured using a luminometer. A complete protocol is included with the kits and is also available at the Promega website. The assay is briefly described below. • 1. Diluted enzyme, substrate, ATP, and compounds (inhibitors) in Kinase Buffer (40 mM Tris, 7.5, 20 mM MgCl2, 0.1 mg/ml BSA, 50 μM DTT). • 2. Added 1 μl of inhibitor, 2 μl of enzyme and 2 μl of substrate/ATP mix to the wells of 384-well low volume nonbinding assay plate A series of three-fold dilution of inhibitor was prepared and assayed for each inhibitor. • 3. Incubated at room temperature for 60 minutes. • 4. Added 5 μl of ADP-Glo™ Reagent. • 5. Incubated at room temperature for 60 minutes. • 6. Added 10 μl of Kinase Detection Reagent • 7. Incubated at room temperature for 30 minutes.
(§3) Recorded luminescence (Integration time 1 second) using a plate-based luminometer.
Calculated Percent Enzyme Activity: First subtract the signal of the negative control (no enzyme and no inhibitor) from each sample's signal. Then use the mean relative light units (RLU) values for the 0% kinase activity (neither inhibitor nor enzyme) and the 100% kinase activity (no compound) to calculate the other percent enzyme activities remaining in the presence of the different dilutions of inhibitor. […]

PKA = PKA (Homo sapiens (Human), UniProt P17612); test: PKA ADP-Glo kinase enzyme inhibition assay; format: biochemical; settings: read-out: PKAIC50
Description: as §2, with “Added 1 μl of inhibitor, 2 μl of enzyme and 2 μl of substrate/ATP mix to the wells of 384-well low volume nonbinding assay plate A series of three-fold dilution of inhibitor was prepared and assayed for each inhibitor. • 3. Incubated at room temperature for 60 minutes. • 4. Added 5 μl of ADP-Glo™ Reagent. • 5. Incubated at room temperature for 60 minutes. • 6. Added 10 μl of Kinase Detection Reagent • 7. Incubated at room temperature for 30 minutes.” left out
as §3
Calculated Percent Enzyme Activity: First subtract the signal of the negative control (no enzyme and no inhibitor) from each sample's signal. […]

ROCK2 = ROCK2 (Homo sapiens (Human), UniProt O75116); test: ROCK2 ADP-Glo kinase enzyme inhibition assay; format: biochemical
Description: as §2, §3
Calculated Percent Enzyme Activity: First subtract the signal of the negative control (no enzyme and no inhibitor) from each sample's signal. Then use the mean relative light units (RLU) values for the 0% kinase activity (neither inhibitor nor enzyme) and the 100% kinase activity (no compound) to calculate the other percent enzyme activities remaining in the presence of the different dilutions of inhibitor.
Inhibitor stock solutions of 10 mM are made in DMSO and stored at −20° C. Dilutions were made in assay buffer immediately before use.

Chain of ROCK2 (O75116 whole entry): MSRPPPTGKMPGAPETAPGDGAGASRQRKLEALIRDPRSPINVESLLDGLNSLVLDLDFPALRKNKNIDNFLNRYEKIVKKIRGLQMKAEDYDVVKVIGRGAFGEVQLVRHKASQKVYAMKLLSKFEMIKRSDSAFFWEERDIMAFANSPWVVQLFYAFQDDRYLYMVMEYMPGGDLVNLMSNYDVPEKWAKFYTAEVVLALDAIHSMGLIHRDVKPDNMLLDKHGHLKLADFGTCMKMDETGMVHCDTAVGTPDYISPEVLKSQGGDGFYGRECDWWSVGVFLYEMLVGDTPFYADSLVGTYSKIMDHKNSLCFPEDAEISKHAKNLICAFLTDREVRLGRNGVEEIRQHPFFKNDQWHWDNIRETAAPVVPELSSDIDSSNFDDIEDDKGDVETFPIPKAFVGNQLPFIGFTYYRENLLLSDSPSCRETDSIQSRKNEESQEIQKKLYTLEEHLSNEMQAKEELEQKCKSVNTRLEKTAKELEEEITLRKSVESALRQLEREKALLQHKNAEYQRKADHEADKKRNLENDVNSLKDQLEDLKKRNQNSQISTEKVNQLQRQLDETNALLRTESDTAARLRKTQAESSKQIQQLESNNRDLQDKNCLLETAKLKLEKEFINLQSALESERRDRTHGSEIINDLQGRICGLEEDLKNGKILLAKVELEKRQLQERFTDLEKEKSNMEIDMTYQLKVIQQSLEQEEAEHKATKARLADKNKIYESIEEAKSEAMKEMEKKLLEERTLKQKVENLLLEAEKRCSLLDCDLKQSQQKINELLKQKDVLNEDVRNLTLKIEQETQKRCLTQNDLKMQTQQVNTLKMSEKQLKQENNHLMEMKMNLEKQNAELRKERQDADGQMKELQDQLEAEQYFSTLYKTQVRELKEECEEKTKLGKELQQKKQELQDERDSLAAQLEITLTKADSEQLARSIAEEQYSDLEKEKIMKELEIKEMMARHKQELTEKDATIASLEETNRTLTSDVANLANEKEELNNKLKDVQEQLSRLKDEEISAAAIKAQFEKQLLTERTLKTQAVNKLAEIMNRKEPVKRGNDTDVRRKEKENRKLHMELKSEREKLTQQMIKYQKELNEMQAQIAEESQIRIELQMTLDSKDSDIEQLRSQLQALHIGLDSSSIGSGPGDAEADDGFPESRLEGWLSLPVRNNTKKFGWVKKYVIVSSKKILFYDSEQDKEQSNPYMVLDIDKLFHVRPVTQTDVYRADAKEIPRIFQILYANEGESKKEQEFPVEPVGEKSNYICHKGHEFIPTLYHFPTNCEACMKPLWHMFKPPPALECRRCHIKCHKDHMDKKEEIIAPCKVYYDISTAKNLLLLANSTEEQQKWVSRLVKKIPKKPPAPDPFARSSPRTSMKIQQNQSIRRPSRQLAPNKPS
Chain of ROCK1 (Q13464 whole entry): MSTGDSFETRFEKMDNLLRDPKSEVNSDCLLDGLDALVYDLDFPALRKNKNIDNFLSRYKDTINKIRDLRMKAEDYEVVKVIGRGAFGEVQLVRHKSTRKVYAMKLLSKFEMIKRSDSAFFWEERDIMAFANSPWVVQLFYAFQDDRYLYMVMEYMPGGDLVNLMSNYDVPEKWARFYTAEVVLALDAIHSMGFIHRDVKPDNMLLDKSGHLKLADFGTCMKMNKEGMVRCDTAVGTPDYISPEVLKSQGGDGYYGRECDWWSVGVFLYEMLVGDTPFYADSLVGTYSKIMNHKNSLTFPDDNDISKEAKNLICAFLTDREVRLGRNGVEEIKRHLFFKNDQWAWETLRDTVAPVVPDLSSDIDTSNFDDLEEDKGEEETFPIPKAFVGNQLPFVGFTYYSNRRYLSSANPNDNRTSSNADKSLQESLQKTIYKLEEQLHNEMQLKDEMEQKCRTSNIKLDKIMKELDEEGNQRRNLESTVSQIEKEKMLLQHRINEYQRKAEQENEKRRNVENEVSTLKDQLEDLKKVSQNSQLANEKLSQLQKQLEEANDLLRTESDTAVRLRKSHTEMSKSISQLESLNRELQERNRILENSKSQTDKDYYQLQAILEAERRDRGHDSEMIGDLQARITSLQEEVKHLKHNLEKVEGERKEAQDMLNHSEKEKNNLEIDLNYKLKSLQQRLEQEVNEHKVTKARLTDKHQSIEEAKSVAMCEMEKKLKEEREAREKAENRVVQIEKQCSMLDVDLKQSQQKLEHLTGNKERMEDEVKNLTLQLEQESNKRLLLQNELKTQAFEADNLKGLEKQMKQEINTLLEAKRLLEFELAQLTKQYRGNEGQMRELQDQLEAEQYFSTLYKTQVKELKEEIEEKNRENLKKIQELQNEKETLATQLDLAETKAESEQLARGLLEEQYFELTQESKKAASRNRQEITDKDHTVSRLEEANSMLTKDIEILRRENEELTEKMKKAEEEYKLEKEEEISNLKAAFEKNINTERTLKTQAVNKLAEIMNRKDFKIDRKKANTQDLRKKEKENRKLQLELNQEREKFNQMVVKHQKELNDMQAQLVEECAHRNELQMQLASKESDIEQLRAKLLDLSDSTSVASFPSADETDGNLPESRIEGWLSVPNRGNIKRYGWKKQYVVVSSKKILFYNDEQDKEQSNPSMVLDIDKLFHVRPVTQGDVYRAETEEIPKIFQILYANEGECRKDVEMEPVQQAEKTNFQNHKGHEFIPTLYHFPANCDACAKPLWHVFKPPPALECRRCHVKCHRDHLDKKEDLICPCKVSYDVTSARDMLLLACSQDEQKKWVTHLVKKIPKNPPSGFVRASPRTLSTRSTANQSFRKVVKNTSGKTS

## Cc1ccc(C(=O)OCc2ccc([C@@H](CN)C(=O)Nc3ccc4cnccc4c3)cc2)c(C)c1.Cl.Cl [Netarsudil.2HCl]
Primary hTM cells [1]
  Cytotoxicity / membrane integrity (in words): concentration dependent
HEK293 cells; 2.5 μM
  reduction in ATP levels: 80%
HEK293 cells; 25 μM
  reduction in ATP levels: 96%
Phospho-MYPT1 Thr853; 2.5 μM inhibitors
  Inhibition of MYPT1 Thr853 phosphorylation (western blot): inhibited phosphorylation of MYPT1
Phospho-MYPT1 Thr853; 10 μM inhibitors, 7 hours
  Inhibition of MYPT1 Thr853 phosphorylation (western blot): completely inhibited MYPT1 phosphorylation
Phospho-MYPT1 Thr853; 10 μM, fifteen hours
  Amount of protein in lane (toxicity): much lower amount of protein because of toxicity
Primary hTM cells [2]; 1.11 μM
  reduction in viability: 10%
Primary hTM cells [2]; within 24 h
  Cell viability compared to DMSO controls: < 2%
Primary hTM cells [2]; within 48 h
  Cell viability compared to DMSO controls: < 0.1%
Primary hTM cells [2]; 24 h
  Cell viability: 53%
Primary hTM cells [2]; 48 h
  Cell viability: 15%
Primary hTM cells [2]; 72 h
  Cell viability: 9%
[3]
  eye irritation classification: irritating
  mean score Iris: 2.0
  mean score conjunctival oedema (chemosis): 4.0
  mean score conjunctival redness: 3.0
  mean score corneal opacity: 3.0
hTM cells; 10 μM
  hTM cell morphology: became small and round
hTM cells; […] and 3.3 μM
  hTM cell morphology: started contracting and detaching from plate
hTM cells; hTM cells, 30, 10, 3.33, or 1.11 μM, 24 hours
  cellular morphological changes: affected cell morphology starting at 1.11 μM showing cell contraction and becoming round and small at 10 μM
Solubility in saline
  solubility in saline: ≤ 5000 µg/mL

## Cl.Cl.NCC(C(=O)Nc1ccc2cnccc2c1)c1ccc(B(O)O)cc1 (centres unmarked) [Compound 10]
Caco-2 Permeability; Caco-2, pH 7.4
  efflux ratio at 120 min, 5 μM: 2.58
Caco-2 Permeability; Caco-2, pH 7.4, A to B
  recovery at 120 min, 5 μM: 108%
Caco-2 Permeability; Caco-2, pH 7.4, A to B, read-out: Papp Avg
  Papp at 120 min, 5 μM: 0.192 ×10⁻⁶ cm/s
Caco-2 Permeability; Caco-2, pH 7.4, A to B, read-out: Papp R1
  Papp at 120 min, 5 μM: 0.209 ×10⁻⁶ cm/s
Caco-2 Permeability; Caco-2, pH 7.4, A to B, read-out: Papp R2
  Papp at 120 min, 5 μM: 0.176 ×10⁻⁶ cm/s
Caco-2 Permeability; Caco-2, pH 7.4, B to A
  recovery at 120 min, 5 μM: 103%
Caco-2 Permeability; Caco-2, pH 7.4, B to A, read-out: Papp Avg
  Papp at 120 min, 5 μM: 0.496 ×10⁻⁶ cm/s
Caco-2 Permeability; Caco-2, pH 7.4, B to A, read-out: Papp R1
  Papp at 120 min, 5 μM: 0.565 ×10⁻⁶ cm/s
Caco-2 Permeability; Caco-2, pH 7.4, B to A, read-out: Papp R2
  Papp at 120 min, 5 μM: 0.426 ×10⁻⁶ cm/s
Caco-2 cells
  Absorption Potential Classification: low (Papp(A to B) < 1 × 10^−6 cm/s: low)
  Significant Efflux: No
[4]
  Brain Penetration Classification: low
MDR1; MDCK-MDR1, pH 7.4, A to B
  recovery at 120 min, 5 μM: 95.5%
MDR1; MDCK-MDR1, pH 7.4, A to B, read-out: Papp Avg
  Papp at 120 min, 5 μM: < 0.0566 ×10⁻⁶ cm/s
MDR1; MDCK-MDR1, pH 7.4, A to B, read-out: Papp R1
  Papp at 120 min, 5 μM: < 0.0566 ×10⁻⁶ cm/s
MDR1; MDCK-MDR1, pH 7.4, A to B, read-out: Papp R2
  Papp at 120 min, 5 μM: < 0.0566 ×10⁻⁶ cm/s
MDR1; MDCK-MDR1, pH 7.4, B to A
  recovery at 120 min, 5 μM: 91.1%
MDR1; MDCK-MDR1, pH 7.4, B to A, read-out: Papp Avg
  Papp at 120 min, 5 μM: < 0.0772 ×10⁻⁶ cm/s
MDR1; MDCK-MDR1, pH 7.4, B to A, read-out: Papp R2
  Papp at 120 min, 5 μM: < 0.0772 ×10⁻⁶ cm/s
ROCK1; average of two lots of compound 10 and compound 10.2HCl, read-out: average IC50 estimate against ROCK1
  IC50: 84 nM
ROCK1; read-out: ROCK1 IC50
  IC50: 137 nM and 62 nM
PKA
  IC50: 52 nM
ROCK2; Exp #1, read-out: ROCK2 IC50(Exp #1)
  IC50: 27 nM
ROCK2; Exp #2, read-out: ROCK2 IC50(Exp #2)
  IC50: 26 nM
ROCK2; Exp #3, read-out: ROCK2 IC50(Exp #3)
  IC50: 26 nM and 15 nM
ROCK2; average of two lots of compound 10 and compound 10.2HCl, read-out: average IC50 estimate against ROCK2
  IC50: 25 nM
